According to patent publication US11504428B2, “Photosensitizer and derivatives and application thereof” (DALIAN UNIVERSITY OF TECHNOLOGY, priority 2017, dated 2022):

Assays:
[1] = UV absorption and fluorescence emission spectra in methanol; type: physicochemical; settings: 5 μM in methanol
Method: (§1) Compounds 1-1 and 1-2 synthesized from embodiment 1 above are added to 3 mL methanol solvent with a final concentration of 5 μM and their UV absorption spectra and fluorescence emission spectra are measured. […] The instruments used are AgIIlent 8453 UV spectrophotometer and AgIIlent Cary EclIIpse fluorescence spectrophotometer.
as §1, with “Benzophenoselenazine photosensitizer 2-1, 2-2,” for “Compounds 1-1 and 1-2”, “2” for “1”, “μM,” for “μM”
Compounds 1-1-IMC and 2-1-IMC synthesized from embodiment 3 above are added to 3 mL methanol solvent with a final concentration of 5 μM. The UV absorption spectra and fluorescence emission spectra are then measured. […] The instruments used are AgIIlent 8453 UV spectrophotometer and AgIIlent Cary EclIIpse fluorescence spectrophotometer.
Compounds 1-1-Biotin synthesized from embodiment 4 above is added to 3 mL methanol solvent with a final concentration of 5 μM, and then the UV absorption spectra and fluorescence emission spectra are detected. […] The instruments used are AgIIlent 8453 UV spectrophotometer and AgIIlent Cary EclIIpse fluorescence spectrophotometer.

[2] = Singlet oxygen production, DPBF absorption attenuation under 660 nm light, methylene blue as reference; type: physicochemical; settings: 5 μM in methanol
Method: Compounds 1-1 and 1-2 synthesized in the embodiment 1 are added to 3 mL methanol solvent with a final concentration of 5 μM. Next, 1, 3-diphenyl isobenzofuran (DPBF) is added, and adjusting the absorbance of DPBF in the solution to about 1.0. Then the ultraviolet absorption curve is measured. According to the changes of the absorbance value of DPBF at 411 nm after each irradiation (660 nm light source), the correlation curve between absorbance and time is drawn. With methylene blue (MB) as reference, the singlet oxygen yield is calculated using the following formula.
(§2) Compounds 1-1 and 1-2 synthesized in the above embodiment 2 are added to 3 mL methanol solvent with a final concentration of 5 μM. Then, the 1,3-diphenyl isobenzofuran (DPBF) is added, and the absorbance of DPBF in the solution is adjusted to about 1.0. Then the ultraviolet absorption curve is measured after each 660 nm red light irradiation. According to the changes of the absorbance value of DPBF at 411 nm, the correlation curve between absorbance and time is drawn. With methylene blue (MB) as reference, the following formula is used to calculate the oxygen yield of its singlet state.
[formula] […] The instruments used are AgIIlent 8453 UV spectrophotometer, and the light source is 300 W xenon lamp.
as §2, with “1-1-IMC” for “1-1”, “2-1-IMC” for “1-2”
as §2, with “1-1-Biotin” for “1-1 and 1-2”

[3] = system: HepG2 (hepatoma cells); experiment: In vitro anticancer test (MTT cell viability), dark and 660 nm light, HepG2; type: cell-based
Method: MCF-7 (human breast) cancer cells or HepG2 (liver cancer cell) are incubated on the cell culture plate in DMEM medium supplemented with 10% FBS and 1% penicillin-streptomycin at 37° C. in a humidified, 5% CO2 atmosphere. Then, the MCF-7 cells are seeded in 96 well cell culture plate at density of 5,000 cells per well. After 24 h incubation, 100 μL of 1-1-Biotin at different concentrations (5, 2.5, 1.25, 0.625, 0.32, 0.16, 0.08, 0.04, 0.02 μM) are added into the each well, and cultured for 1 h. Then, the cell medium is replaced with 200 μL fresh medium. For the phototoxicity test, the 96-well plate is irradiated with 660 nm light source for 10 min and then cultured in the above environment for 12 hours. No light irradiation is used as control. Then 20 μL MTT solution with a concentration of 5 mg/mL is added into each well and incubated in the incubator for another 4 hours. The culture medium is then removed and 200 μL DMSO is added to each well, and the plate is gently shaken for 5 min at room temperature. Finally, the absorbance at 490 nm is measured with a Bio-Rad microplate reader and the cell viability is calculated by the following equation: Cell Viability (%)=[Σ(Ai/Ācontrol×100)]/n
Ai is the absorbance of the ith group of data (I=1, 2 . . . , n), Ācontrol is the average absorbance of the control hole of the drug, and the parallel experiment is more than 3 times.

[4] = system: COS-7 (African green monkey kidney cells); experiment: In vitro anticancer test (MTT cell viability), dark and 660 nm light, COS-7; type: cell-based
[5] = system: HepG2 cells; experiment: In vitro cell selectivity test, confocal fluorescence uptake in co-cultured cells, HepG2; type: cell-based; settings: 1 μM, 1 h
Method: (§3) Firstly, HepG2 cells and COS-7 cells are cultured together in a cell culture dish for 24 h, and then 1 μM of 1-1-biotin or 1-1 is added and further incubation for 1 h. After staining, the cells are washed using serum-free medium for three times. Then, 2 mL fresh medium is added, and corresponding fluorescence observation is performed using the laser confocal scanning microscope. The excitation wavelength is 635 nm and the fluorescence receiving channel is 655 nm-755 nm.

[6] = system: COS-7 cells; experiment: In vitro cell selectivity test, confocal fluorescence uptake in co-cultured cells, COS-7; type: cell-based, African green monkey; settings: 1 μM, 1 h, COS-7 co-cultured with HepG2, excitation 635 nm
Method: as §3

Row | SMILES | maximum absorption wavelength [1] [nm] | maximum emission wavelength [1] [nm] | singlet oxygen yield [2] | killing effect on biotin receptor overexpressing HepG2 cells relative to COS-7 cells ([3]; 660 nm light, HepG2 vs COS-7 with low biotin receptor expression) | phototoxicity (cell killing) ([3]; HepG2, 10 minutes irradiation with 660 nm LED light source, MTT) | dark toxicity (cell survival rate) ([3]; HepG2, no light irradiation, MTT) | phototoxicity (cytotoxicity) ([4]; COS-7, 10 minutes irradiation with 660 nm LED light source) | dark toxicity (cell survival rate) ([4]; COS-7, no light irradiation) | cell uptake / targeting (red fluorescence) ([5]; HepG2 co-cultured with COS-7, excitation 635 nm) | cell uptake (red fluorescence) [6] | selectivity of uptake for HepG2 over COS-7 cells ([5]; co-culture of HepG2 and COS-7)
1 | CCN(CC)c1ccc2nc3c4ccccc4/c(=N\CCCCCCNC(=O)CCCCC4SC[C@@H]5NC(=O)N[C@H]45)cc-3sc2c1 (some centres unmarked) [1-1-Biotin] | 652 | 681 | 0.04 | significantly higher | significant HepG2 cells arr killed | low dark toxicity | only limited cytotoxicity | low dark toxicity | can specifically target HepG2 cells | very limited | 
2 | CCN(CC)c1ccc2nc3c4ccccc4/c(=N\CCCCCCNC(=O)Cc4c(C)n(C(=O)c5ccc(Cl)cc5)c5ccc(OC)cc45)cc-3sc2c1 [1-1-IMC] | 654 | 694 | 0.04 |  |  |  |  |  |  |  | 
3 | CCN(CC)c1ccc2nc3c4ccccc4/c(=N\CCCCCCN)cc-3sc2c1 [1-1] | 655 | 694 | 0.04 |  |  |  |  |  |  |  | does not have such selectivity
4 | CCN(CC)c1ccc2nc3c4ccccc4/c(=N\CCCCCC(=O)O)cc-3sc2c1 [1-2] | 655 | 694 | 0.04 |  |  |  |  |  |  |  | 
5 | CCN(CC)c1ccc2nc3c4ccccc4/c(=N\CCCCCCNC(=O)Cc4c(C)n(C(=O)c5ccc(Cl)cc5)c5ccc(OC)cc45)cc-3[se]c2c1 [2-1-IMC] | 662 | 703 | 0.82 |  |  |  |  |  |  |  | 
6 | CCN(CC)c1ccc2nc3c4ccccc4/c(=N\CCCCCCN)cc-3[se]c2c1 [2-1] | 661 | 702 | 0.78 |  |  |  |  |  |  |  | 
7 | CCN(CC)c1ccc2nc3c4ccccc4/c(=N\CCCCCC(=O)O)cc-3[se]c2c1 [2-2] | 661 | 702 | 0.73 |  |  |  |  |  |  |  | 
